Blank lines part the entries; values can stand above or below the compound they belong to.
Legend:
[1] = molecular target: Calcium/calmodulin-dependent protein kinase type II subunit alpha (Homo sapiens, UniProt Q9UQM7); assay: Selectivity interaction (Kinase panel (Z-LYTE Assay)) EUB0001632a CAMK2A; details: at 10 µM
[2] = molecular target: T1, Mitogen-activated protein kinase kinase kinase 6 (Homo sapiens) (UniProt O95382); assay: Selectivity interaction (KinomeScan (DiscoverX)) EUB0000666a MAP3K6; details: at 10 µM
T1 sequence (whole entry): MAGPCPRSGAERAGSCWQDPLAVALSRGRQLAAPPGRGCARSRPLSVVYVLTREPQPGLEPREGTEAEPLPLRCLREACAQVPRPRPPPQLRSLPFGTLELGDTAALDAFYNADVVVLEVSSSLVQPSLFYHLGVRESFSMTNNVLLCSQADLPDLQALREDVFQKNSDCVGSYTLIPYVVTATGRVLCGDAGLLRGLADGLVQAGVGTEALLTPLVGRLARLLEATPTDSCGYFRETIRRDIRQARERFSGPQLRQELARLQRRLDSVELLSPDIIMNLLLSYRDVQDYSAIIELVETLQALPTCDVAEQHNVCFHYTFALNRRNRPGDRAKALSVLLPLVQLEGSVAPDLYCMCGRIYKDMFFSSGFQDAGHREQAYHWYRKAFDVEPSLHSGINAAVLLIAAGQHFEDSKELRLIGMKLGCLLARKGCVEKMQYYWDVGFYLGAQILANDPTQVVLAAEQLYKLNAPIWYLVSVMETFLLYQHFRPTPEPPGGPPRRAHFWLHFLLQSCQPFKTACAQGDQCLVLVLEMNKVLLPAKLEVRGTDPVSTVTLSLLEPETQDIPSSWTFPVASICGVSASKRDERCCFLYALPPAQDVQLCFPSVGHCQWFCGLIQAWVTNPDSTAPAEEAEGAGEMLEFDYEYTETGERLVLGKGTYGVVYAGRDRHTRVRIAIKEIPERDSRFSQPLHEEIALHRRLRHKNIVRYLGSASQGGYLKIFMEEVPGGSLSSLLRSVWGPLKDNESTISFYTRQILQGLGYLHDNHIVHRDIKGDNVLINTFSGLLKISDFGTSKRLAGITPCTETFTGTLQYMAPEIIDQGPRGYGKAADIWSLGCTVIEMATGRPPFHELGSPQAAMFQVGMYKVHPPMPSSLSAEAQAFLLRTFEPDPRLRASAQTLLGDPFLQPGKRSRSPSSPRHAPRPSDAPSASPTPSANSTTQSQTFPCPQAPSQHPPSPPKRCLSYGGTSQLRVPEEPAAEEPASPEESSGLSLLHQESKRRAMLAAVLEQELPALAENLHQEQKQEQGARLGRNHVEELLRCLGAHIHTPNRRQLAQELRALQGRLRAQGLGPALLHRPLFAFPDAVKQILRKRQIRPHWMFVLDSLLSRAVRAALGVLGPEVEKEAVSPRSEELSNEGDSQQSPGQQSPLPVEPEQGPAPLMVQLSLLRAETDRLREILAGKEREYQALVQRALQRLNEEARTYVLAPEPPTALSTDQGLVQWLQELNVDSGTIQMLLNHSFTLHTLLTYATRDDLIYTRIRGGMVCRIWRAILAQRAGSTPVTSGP

[3] = molecular target: T2, Serine/threonine-protein kinase 4 (Homo sapiens) (UniProt Q13043); assay: Selectivity interaction (SelectScreen profiling (Invitrogen)) EUB0000607a STK4; details: at 2 µM
T2 sequence (whole entry): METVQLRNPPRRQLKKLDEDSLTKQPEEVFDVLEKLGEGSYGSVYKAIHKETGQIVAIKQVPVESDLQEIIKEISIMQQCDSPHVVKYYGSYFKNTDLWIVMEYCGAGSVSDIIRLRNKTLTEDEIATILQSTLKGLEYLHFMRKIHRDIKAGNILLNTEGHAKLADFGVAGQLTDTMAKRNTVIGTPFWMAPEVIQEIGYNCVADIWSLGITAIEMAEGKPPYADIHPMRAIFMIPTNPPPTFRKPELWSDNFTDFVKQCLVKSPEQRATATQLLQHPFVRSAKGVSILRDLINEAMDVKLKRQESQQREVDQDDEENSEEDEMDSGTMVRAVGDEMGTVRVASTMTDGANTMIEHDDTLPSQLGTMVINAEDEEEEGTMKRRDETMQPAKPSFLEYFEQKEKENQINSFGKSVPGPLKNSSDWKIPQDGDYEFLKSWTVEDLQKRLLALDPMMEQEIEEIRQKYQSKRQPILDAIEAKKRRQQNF

[4] = molecular target: T3, MAP/microtubule affinity-regulating kinase 4 (Homo sapiens) (UniProt Q96L34); assay: Selectivity interaction (ActivX KiNativ screen (kinase selectivity in THP-1 cell lysates)) EUB0000639a MARK4; format: subcellular; details: lysate, at 1 µM
T3 sequence (whole entry): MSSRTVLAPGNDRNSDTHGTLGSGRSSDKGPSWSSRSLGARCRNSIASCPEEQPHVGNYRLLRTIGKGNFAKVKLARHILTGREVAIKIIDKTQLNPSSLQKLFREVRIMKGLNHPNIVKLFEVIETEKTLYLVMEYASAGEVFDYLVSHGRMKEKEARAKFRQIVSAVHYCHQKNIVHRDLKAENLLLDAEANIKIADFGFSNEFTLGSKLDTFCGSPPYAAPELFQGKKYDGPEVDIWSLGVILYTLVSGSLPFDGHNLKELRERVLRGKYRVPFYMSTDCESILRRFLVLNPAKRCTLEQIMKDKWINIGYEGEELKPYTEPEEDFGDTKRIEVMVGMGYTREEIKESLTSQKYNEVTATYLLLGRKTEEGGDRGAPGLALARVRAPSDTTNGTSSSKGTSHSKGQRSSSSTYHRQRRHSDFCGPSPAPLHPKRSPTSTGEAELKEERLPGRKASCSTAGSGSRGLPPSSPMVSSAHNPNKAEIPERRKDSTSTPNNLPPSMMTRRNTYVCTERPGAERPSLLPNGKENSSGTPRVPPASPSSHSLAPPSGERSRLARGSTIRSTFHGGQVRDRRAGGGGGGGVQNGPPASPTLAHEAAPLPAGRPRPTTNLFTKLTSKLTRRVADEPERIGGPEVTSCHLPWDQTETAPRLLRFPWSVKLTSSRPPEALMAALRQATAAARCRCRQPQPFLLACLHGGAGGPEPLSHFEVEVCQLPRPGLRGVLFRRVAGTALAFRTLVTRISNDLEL

[5] = molecular target: Casein kinase I isoform gamma-2 (Homo sapiens) (UniProt P78368); assay: Selectivity interaction (KinomeScan (DiscoverX)) EUB0001049a CSNK1G2; details: at 1 µM
Sequence of Casein kinase I isoform gamma-2 (Homo sapiens) (P78368 whole entry, looked up, canonical isoform): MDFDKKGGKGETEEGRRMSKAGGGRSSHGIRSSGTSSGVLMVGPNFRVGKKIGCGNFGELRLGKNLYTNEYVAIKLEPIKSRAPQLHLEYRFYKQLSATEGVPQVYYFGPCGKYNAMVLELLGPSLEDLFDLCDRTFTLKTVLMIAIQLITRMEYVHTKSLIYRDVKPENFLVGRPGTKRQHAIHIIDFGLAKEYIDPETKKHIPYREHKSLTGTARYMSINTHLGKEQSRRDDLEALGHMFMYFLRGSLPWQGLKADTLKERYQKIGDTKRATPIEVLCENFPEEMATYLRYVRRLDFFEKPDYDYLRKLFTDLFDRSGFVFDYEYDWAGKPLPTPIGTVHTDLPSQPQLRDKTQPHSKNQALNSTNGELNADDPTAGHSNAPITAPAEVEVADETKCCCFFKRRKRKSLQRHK

Sequence of Calcium/calmodulin-dependent protein kinase type II subunit alpha (Q9UQM7 whole entry): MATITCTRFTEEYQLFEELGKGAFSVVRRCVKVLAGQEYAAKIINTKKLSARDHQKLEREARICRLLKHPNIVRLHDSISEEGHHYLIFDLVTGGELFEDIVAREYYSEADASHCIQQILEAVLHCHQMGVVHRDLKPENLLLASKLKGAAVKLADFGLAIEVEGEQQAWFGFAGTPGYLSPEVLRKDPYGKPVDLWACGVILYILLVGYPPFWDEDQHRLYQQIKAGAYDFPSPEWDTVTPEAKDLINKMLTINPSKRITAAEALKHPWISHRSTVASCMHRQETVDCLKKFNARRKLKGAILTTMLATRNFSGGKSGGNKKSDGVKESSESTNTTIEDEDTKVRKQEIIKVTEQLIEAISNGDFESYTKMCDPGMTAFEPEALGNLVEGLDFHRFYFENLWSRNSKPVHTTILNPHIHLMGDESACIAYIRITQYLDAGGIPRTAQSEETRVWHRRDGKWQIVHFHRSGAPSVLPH

% of control [1]: -0.947%
Structure (SMILES): Cn1cc(-n2cnc3c(NCc4nc5cc(Cl)c(Cl)cc5[nH]4)nc(N4CCOCC4)nc32)cn1

Structure (SMILES): O=C(NOC[C@H](O)CO)c1ccc(F)c(F)c1Nc1ccc(I)cc1F
% of control [2]: 95%

Structure (SMILES): CNC(=O)Nc1ccc(-c2nc(N3CC4CCC(C3)O4)c3cnn(C4CCC5(CC4)OCCO5)c3n2)cc1
% of inhibition [3]: 12%

% of inhibition [4]: 17.1%
Structure (SMILES): CC[C@@H]1[C@H](F)C(=O)N[C@@H]1COc1nccc2cc(C(N)=O)c(OC)cc12 [ZIMLOVISERTIB]

Structure (SMILES): COc1cc(Nc2nc(C)cc(-c3cnn4nc(OC)ccc34)n2)cc(C(F)(F)F)c1
% of control [5]: 97%
